Assay [1] concerns P. falciparum female gametocytes. The assay can be described thus: P. falciparum Dual Gamete Formation Assay (PfDGFA), female readout (Pfs25-positive female gametes). Format: cell-based, Plasmodium falciparum NF54. To be noted: for Average inhibition female (%): average of replicates; for % inhibition female (individual replicates) R1: replicate R1; for % inhibition female (individual replicates) R3: replicate R3; for % inhibition female (individual replicates) R4: replicate R4. A digest of the protocol:
(§1)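 NF54 mature gametocytes (d14), cpd 24 h 37°C hypoxic gas; trigger: xanthurenic acid ookinete medium + Cy3 anti-Pfs25, 4°C 4 min → 28°C 4 min. Male: exflagellation centres, brightfield x6. Female: Pfs25+ gametes, fluorescence, +24 h 28°C dark.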

Assay [2] has as its system P. falciparum male gametocytes. The assay is described as follows: P. falciparum Dual Gamete Formation Assay (PfDGFA), male readout (exflagellation). The format is cell-based, Plasmodium falciparum NF54. To be noted: for Average inhibition male (%): average of replicates; for % inhibition male (individual replicates) R1: replicate R1; for % inhibition male (individual replicates) R4: replicate R4; for % inhibition male (individual replicates) R3: replicate R3; for Activity: hit = >50% inhibition in male or female readout in at least 3 replicates, 0 = no class assigned. A digest of the protocol: as §1

[3] abbreviates: 2µM, 24h preincubation with gametocytes prior to induction of gametogenesis.
Where [4] appears, read: 2µM, 24h preincubation, number of replicates with >50% inhibition in the female readout.
Setting [5] is: 2µM, 24h preincubation, number of replicates with >50% inhibition in the male readout.
Where [6] appears, read: 2µM, 24h preincubation, hits selected on >50% inhibition in the female readout across replicates.
[7] abbreviates: 2µM, 24h preincubation, hits selected on >50% inhibition in the male readout across replicates.
The mark [8] stands for this setting: PfDGFA at 2µM, 24h preincubation.
Setting [9] is: PfDGFA at 2µM, 24h preincubation with gametocytes.
Where [10] appears, read: number of replicates with >50% inhibition in the female readout, 2µM.
[11] abbreviates: number of replicates with >50% inhibition in the male readout, 2µM.

We go through 13 compounds from article PMC10584170, “Machine learning-based phenotypic imaging to characterise the targetable biology of Plasmodium falciparum male gametocytes for the development of transmission-blocking antimalarials” (PLOS Pathogens, 2023).

With `CN1CCC(NCc2ccc(-c3ccc(S(=O)(=O)NCc4ccccc4)cc3)cc2)CC1.O=C(O)C(F)(F)F` [TCMDC-132227], in assay [1] (setting [3]), the “Average inhibition female (%)” value is reported as 19.1%, the “% inhibition female (individual replicates) R1” value stood at 9.9%, the “% inhibition female (individual replicates) R3” value turned out to be 31.6% and the “% inhibition female (individual replicates) R4” value came to 17.4%. This compound also returned a HitlevelF in assay [1] (setting [4]) of 0. Moreover, in assay [2] (setting [3]), the “Average inhibition male (%)” value is 43.4%, the “% inhibition male (individual replicates) R1” value was 32.1% and the “% inhibition male (individual replicates) R4” value is reported as 43.3%. In assay [2] (setting [5]), this compound displayed a HitlevelM of 1.
For the compound `O=C(O)C(F)(F)F.O=S(=O)(NCCN1CCCC1)c1ccc(-c2ccc(CNC3Cc4ccccc4C3)cc2)cc1` [TCMDC-132229], in assay [1] (setting [3]), the “Average inhibition female (%)” value was 26.6%, the “% inhibition female (individual replicates) R1” value is on record as 21.5%, the “% inhibition female (individual replicates) R3” value turned out to be 7.4% and the “% inhibition female (individual replicates) R4” value turned out to be 45.3%. This compound also had a HitlevelF in assay [1] (setting [4]) of 0. Also, in assay [2] (setting [3]), the “Average inhibition male (%)” value came out at 10.7%, the “% inhibition male (individual replicates) R1” value is 12.4%, the “% inhibition male (individual replicates) R3” value is 8.7% and the “% inhibition male (individual replicates) R4” value was determined as 9.5%. In assay [2] (setting [5]), this compound showed a HitlevelM of 0.
Turning to `CN1CCC(NCc2ccc(-c3ccc(S(=O)(=O)NCc4ccccc4)s3)cc2)CC1.O=C(O)C(F)(F)F` [TCMDC-132231], in assay [1] (setting [3]), the “Average inhibition female (%)” value was 9.7%, the “% inhibition female (individual replicates) R1” value is reported as 17.2%, the “% inhibition female (individual replicates) R3” value is on record as 1.4% and the “% inhibition female (individual replicates) R4” value was 10.3%. The compound further returned a HitlevelF in assay [1] (setting [6]) of 0. Moreover, in assay [2] (setting [3]), the “Average inhibition male (%)” value was 34.4%, the “% inhibition male (individual replicates) R1” value is given as 32.6% and the “% inhibition male (individual replicates) R4” value was determined as 32.4%. This compound also had a HitlevelM in assay [2] (setting [7]) of 0. For the same compound, the Activity in assay [2] (setting [8]) stood at 0.
For `O=C(O)C(F)(F)F.O=S(=O)(NCCN1CCCC1)c1ccc(-c2ccc(CNC3Cc4ccccc4C3)cc2)s1` [TCMDC-132234], in assay [1] (setting [3]), the “Average inhibition female (%)” value came to 29.4%, the “% inhibition female (individual replicates) R1” value was 25.4%, the “% inhibition female (individual replicates) R3” value was 5.2% and the “% inhibition female (individual replicates) R4” value is listed as 45.9%. Besides, the HitlevelF in assay [1] (setting [4]) turned out to be 0. Also, in assay [2] (setting [3]), the “Average inhibition male (%)” value is reported as 17.3%, the “% inhibition male (individual replicates) R1” value is 15.3%, the “% inhibition male (individual replicates) R3” value worked out at 1.0% and the “% inhibition male (individual replicates) R4” value is reported as 34.9%. In assay [2] (setting [5]), the HitlevelM was found to be 0.
Turning to `CN1CCC(NCc2ccc(-c3cccc(S(=O)(=O)NCc4ccccc4)c3)cc2)CC1.O=C(O)C(F)(F)F` [TCMDC-132238], in assay [1] (setting [3]), the “Average inhibition female (%)” value stood at 15.2%, the “% inhibition female (individual replicates) R1” value turned out to be 18.5%, the “% inhibition female (individual replicates) R3” value is -4.9% and the “% inhibition female (individual replicates) R4” value is recorded as 24.5%. In assay [1] (setting [6]), this compound returned a HitlevelF of 0. In addition, in assay [2] (setting [3]), the “Average inhibition male (%)” value was 25.7%, the “% inhibition male (individual replicates) R1” value turned out to be 17.7%, the “% inhibition male (individual replicates) R3” value is reported as -3.8% and the “% inhibition male (individual replicates) R4” value amounted to 50.9%. The same compound returned a HitlevelM in assay [2] (setting [7]) of 1. For the same compound, the Activity in assay [2] (setting [8]) is recorded as 0.
On to `O=C(O)C(F)(F)F.O=S(=O)(NCCN1CCCC1)c1cccc(-c2ccc(CNC3Cc4ccccc4C3)cc2)c1` [TCMDC-132241], for which, in assay [1] (setting [3]), the “Average inhibition female (%)” value is 16.9%, the “% inhibition female (individual replicates) R1” value is given as 23.8%, the “% inhibition female (individual replicates) R3” value is listed as 3.4% and the “% inhibition female (individual replicates) R4” value turned out to be 2.0%. Moreover, the HitlevelF in assay [1] (setting [6]) amounted to 0. Also, in assay [2] (setting [3]), the “Average inhibition male (%)” value was -1.0%, the “% inhibition male (individual replicates) R1” value came out at 15.7%, the “% inhibition male (individual replicates) R3” value was -7.3% and the “% inhibition male (individual replicates) R4” value is on record as -2.5%. Moreover, the HitlevelM in assay [2] (setting [7]) is 0. In addition, the Activity in assay [2] (setting [8]) is given as 0.
Consider `COc1ccc(CNC2CCN(C)CC2)cc1-c1ccc(S(=O)(=O)NCc2ccccc2)cc1.O=C(O)C(F)(F)F` [TCMDC-132244], for which, in assay [1] (setting [9]), the “Average inhibition female (%)” value turned out to be 25.2%, the “% inhibition female (individual replicates) R1” value turned out to be 21.6%, the “% inhibition female (individual replicates) R3” value turned out to be 8.8% and the “% inhibition female (individual replicates) R4” value amounted to 45.4%. The HitlevelF in assay [1] (setting [10]) is listed as 0. Further, in assay [2] (setting [9]), the “Average inhibition male (%)” value amounted to 63.1%, the “% inhibition male (individual replicates) R1” value is reported as 62.4%, the “% inhibition male (individual replicates) R3” value came to 51.6% and the “% inhibition male (individual replicates) R4” value is recorded as 78.9%. In assay [2] (setting [11]), this compound showed a HitlevelM of 4.
Consider `COc1ccc(CNC2CCN(C)CC2)cc1-c1ccc(S(=O)(=O)NC2CCC2)cc1.O=C(O)C(F)(F)F` [TCMDC-132245], for which, in assay [1] (setting [3]), the “Average inhibition female (%)” value is listed as 10.6%, the “% inhibition female (individual replicates) R1” value is reported as 7.8%, the “% inhibition female (individual replicates) R3” value was -17.0% and the “% inhibition female (individual replicates) R4” value is 30.9%. The compound further had a HitlevelF in assay [1] (setting [4]) of 0. Moreover, in assay [2] (setting [3]), the “Average inhibition male (%)” value was 51.4%, the “% inhibition male (individual replicates) R1” value came to 59.0%, the “% inhibition male (individual replicates) R3” value was 27.2% and the “% inhibition male (individual replicates) R4” value came out at 60.2%. In assay [2] (setting [5]), this compound registered a HitlevelM of 3.
Take `COc1ccc(CNC2Cc3ccccc3C2)cc1-c1ccc(OC)c(S(=O)(=O)NCCN2CCCC2)c1.O=C(O)C(F)(F)F` [TCMDC-132251]: in assay [1] (setting [3]), the “Average inhibition female (%)” value was 36.3%, the “% inhibition female (individual replicates) R1” value is recorded as 26.7%, the “% inhibition female (individual replicates) R3” value turned out to be 26.1% and the “% inhibition female (individual replicates) R4” value is reported as 31.1%. The same compound gave a HitlevelF in assay [1] (setting [4]) of 1. Further, in assay [2] (setting [3]), the “Average inhibition male (%)” value was -9.5%, the “% inhibition male (individual replicates) R1” value is listed as -12.6%, the “% inhibition male (individual replicates) R3” value is given as -24.0% and the “% inhibition male (individual replicates) R4” value is recorded as 8.2%. The compound further gave a HitlevelM in assay [2] (setting [5]) of 0.
On to `COc1ccc(CNC2CCN(C)CC2)cc1-c1ccc(S(=O)(=O)NC2CCC2)s1.O=C(O)C(F)(F)F` [TCMDC-132254], for which, in assay [1] (setting [3]), the “Average inhibition female (%)” value is on record as 16.7%, the “% inhibition female (individual replicates) R1” value is on record as 16.7%, the “% inhibition female (individual replicates) R3” value is 22.1% and the “% inhibition female (individual replicates) R4” value is on record as 14.8%. The HitlevelF in assay [1] (setting [6]) came to 0. For the same compound, in assay [2] (setting [3]), the “Average inhibition male (%)” value turned out to be 56.3%, the “% inhibition male (individual replicates) R1” value came out at 57.2% and the “% inhibition male (individual replicates) R4” value is listed as 49.8%. This compound also registered a HitlevelM in assay [2] (setting [7]) of 2. In assay [2] (setting [8]), this compound registered an Activity of 0.
For `COc1ccc(CNC2CCN(C)CC2)cc1-c1cccc(S(=O)(=O)NCc2ccccc2)c1.O=C(O)C(F)(F)F` [TCMDC-132267], in assay [1] (setting [9]), the “Average inhibition female (%)” value stood at 16.9%, the “% inhibition female (individual replicates) R1” value is 27.9%, the “% inhibition female (individual replicates) R3” value is 4.5% and the “% inhibition female (individual replicates) R4” value is 10.9%. In assay [1] (setting [10]), this compound returned a HitlevelF of 0. In addition, in assay [2] (setting [9]), the “Average inhibition male (%)” value is on record as 67.3%, the “% inhibition male (individual replicates) R1” value was 62.4%, the “% inhibition male (individual replicates) R3” value is listed as 55.8% and the “% inhibition male (individual replicates) R4” value was determined as 79.6%. The HitlevelM in assay [2] (setting [11]) stood at 4.
Turning to `COc1ccc(CNC2Cc3ccccc3C2)cc1-c1cccc(S(=O)(=O)NCCN2CCCC2)c1.O=C(O)C(F)(F)F` [TCMDC-132269], in assay [1] (setting [3]), the “Average inhibition female (%)” value stood at 23.4%, the “% inhibition female (individual replicates) R1” value was 14.9%, the “% inhibition female (individual replicates) R3” value was -7.5% and the “% inhibition female (individual replicates) R4” value amounted to 55.1%. The HitlevelF in assay [1] (setting [4]) stood at 1. Further, in assay [2] (setting [3]), the “Average inhibition male (%)” value amounted to 7.0%, the “% inhibition male (individual replicates) R1” value amounted to 7.1%, the “% inhibition male (individual replicates) R3” value is -13.3% and the “% inhibition male (individual replicates) R4” value is given as 18.2%. The compound also registered a HitlevelM in assay [2] (setting [5]) of 0.
Regarding `COc1ccc(CNCc2ccc(F)cc2)cc1-c1ccc(S(=O)(=O)NCCN2CCCC2)cc1.O=C(O)C(F)(F)F` [TCMDC-132294], in assay [1] (setting [3]), the “Average inhibition female (%)” value worked out at 26.6%, the “% inhibition female (individual replicates) R1” value is 28.2%, the “% inhibition female (individual replicates) R3” value came to 29.3% and the “% inhibition female (individual replicates) R4” value was determined as 24.2%. The compound also displayed a HitlevelF in assay [1] (setting [4]) of 0. Also, in assay [2] (setting [3]), the “Average inhibition male (%)” value was -4.3%, the “% inhibition male (individual replicates) R1” value is listed as -26.4% and the “% inhibition male (individual replicates) R4” value was determined as 1.5%. In assay [2] (setting [5]), this compound had a HitlevelM of 0.
